Laboratory results from patent US8846570B2, “Herbicidal compositions comprising 4-amino-3-chloro-5-fluoro-6-(4-chloro-2-fluoro-3-methoxyphenyl)pyridine-2-carboxylic acid or a derivative thereof and microtubule inhibiting herbicides” (Dow AgroSciences LLC, priority 2012, dated 2014).
Where two headings read alike, the source gives them in different places.

How the values were obtained:
Test in all cases: Postemergence foliar-applied, direct seeded rice, greenhouse: visual weed control
Assay type in all cases: in vivo
[1] = system: Echinochloa colona (L.) Link (ECHCO)
Excerpt: (§1) Seeds or nutlets of the desired test plant species were planted in a soil matrix prepared by mixing a loam or sandy loam soil (e.g., 28.6 percent silt, 18.8 percent clay, and 52.6 percent sand, with a pH of about 5.8 and an organic matter content of about 1.8 percent) and calcareous grit in an 80 to 20 ratio. The soil matrix was contained in plastic pots with a volume of 1 quart and a surface area of 83.6 cm^2. When required to ensure good germination and healthy plants, a fungicide treatment and/or other chemical or physical treatment was applied. The plants were grown for 8-22 days in a greenhouse with an approximate 14 h photoperiod which was maintained at about 29° C. during the day and 26° C. during the night. Nutrients (Peters Excel® 15-5-15 5-Ca 2-Mg and iron chelate) were applied in the irrigation solution as needed and water was added on a regular basis. Supplemental lighting was provided with overhead metal halide 1000-Watt lamps as necessary. The plants were employed for testing when they reached the first through fourth true leaf stage.
(§2) Treatments consisted of the acid or esters of 4-amino-3-chloro-5-fluoro-6-(4-chloro-2-fluoro-3-methoxy-phenyl)pyridine-2-carboxylic acid (Compound A), each formulated as an SC (suspension concentrate), and various herbicidal components alone and in combination. Forms of compound A were applied on an acid equivalent basis.
(§3) Treatment requirements were calculated based upon the rates being tested, the concentration of active ingredient or acid equivalent in the formulation, and a 12 mL application volume at a rate of 187 L/ha.
(§4) For treatments comprised of formulated compounds, measured amounts of compounds were placed individually in 25 mL glass vials and diluted in a volume of 1.25% (v/v) Agri-Dex® crop oil concentrated to obtain 12× stock solutions. […] Application solutions were prepared by adding an appropriate amount of each stock solution (e.g., 1 mL) and diluted to the appropriate final concentrations with the addition of 10 mL of an aqueous mixture of 1.25% (v/v) crop oil concentrate so that the final spray solutions contained 1.25+/−0.05% (v/v) crop oil concentrate.
(§5) As required, additional water and/or 97:3 v/v acetone/DMSO was added to individual application solutions so that the final acetone and DMSO concentrations of the application solutions being compared were 8.1% and 0.25%, respectively.
(§6) All stock solutions and applications solutions were visually inspected for compound compatibility prior to application. Spray solutions were applied to the plant material with an overhead Mandel track sprayer equipped with a 8002E nozzles calibrated to deliver 187 L/ha over an application area of 0.503 m^2 at a spray height of 18 to 20 inches (46 to 50 cm) above average plant canopy height. Control plants were sprayed in the same manner with the solvent blank.
(§7) The treated plants and control plants were placed in a greenhouse as described above and watered by sub-irrigation to prevent wash-off of the test compounds. After approximately 3 weeks, the condition of the test plants as compared with that of the untreated plants was determined visually and scored on a scale of 0 to 100 percent where 0 corresponds to no injury or growth inhibition and 100 corresponds to complete kill.
(§8) Colby's equation was used to determine the herbicidal effects expected from the mixtures (Colby, S. R. 1967. Calculation of the synergistic and antagonistic response of herbicide combinations. Weeds 15:20-22.).
(§9) The following equation was used to calculate the expected activity of mixtures containing two active ingredients, A and B: Expected=A+B−(A×B/100)

[2] = system: Brachiaria platyphylla (Griseb.) Nash (BRAPP); settings: 21 DAA
Excerpt: as §1, §2, §3, §4, §5, §6, §7, §8, §9

[3] = system: Digitaria sanguinalis (L.) Scop. (DIGSA); settings: 19 DAA
Excerpt: as §1, §2, §3, §4, §5, §6, §7, §8, §9

[4] = system: Ipomoea hederacea Jacq. (IPOHE); settings: post-emergence, read-out: Visual Weed Control (%) Obs
Method: as §1, with “When required to ensure good germination and healthy plants, a fungicide treatment and/or other chemical or physical treatment was applied.” left out
(§10) Forms of compound A were applied on an acid equivalent basis.
as §4, §5, §6, §7, §8, §9

[5] = system: Echinochloa crusgalli (L.) Beauv. (ECHCG)
Method: as §1, with “When required to ensure good germination and healthy plants, a fungicide treatment and/or other chemical or physical treatment was applied.” left out
as §10, §4, §5, §6, §7, §8, §9

`COc1c(Cl)ccc(-c2nc(C(=O)O)c(Cl)c(N)c2F)c1F` [Compound A Acid, 4-amino-3-chloro-6-(4-chloro-2-fluoro-3-methoxyphenyl)-5-fluoropyridine-2-carboxylic acid] was tested, and the “Visual Weed Control (%) Obs” value ([1]; 21 DAA, 4.38 g ae/ha) was 60%, the “Visual Weed Control (%) Obs” value ([1]; 21 DAA, 8.75 g ae/ha) was 90% and the “Visual Weed Control (%) Obs” value ([2]; 8.75 g ae/ha) was 60%. The “Visual Weed Control (%) Obs” value ([3]; 4.38 g ae/ha) was 30%, the pest or weed control at 4.38 g/ha ([4]; 456 h, 19 DAA, 4.38 g ae/ha) was 0% and the pest or weed control at 8.75 g/ha ([4]; 456 h, 19 DAA, 8.75 g ae/ha) was 10%. For the same molecule, the pest or weed control at 35 g/ha ([4]; 504 h, 21 DAA, 35 g ae/ha) was 45%, the pest or weed control at 8 g/ha ([4]; 528 h, 22 DAA, 8 g ae/ha) was 25% and the pest or weed control at 16 g/ha ([4]; 528 h, 22 DAA, 16 g ae/ha) was 35%. For the same molecule, the pest or weed control at 32 g/ha ([4]; 528 h, 22 DAA, 32 g ae/ha) was 40% and the “Visual Weed Control (%) Obs” value ([5]; 19 DAA, 4.38 g ae/ha) was 60%.

For `COc1c(Cl)ccc(-c2nc(C(=O)OCc3ccccc3)c(Cl)c(N)c2F)c1F` [Compound A Benzyl Ester, benzyl ester of 4-amino-3-chloro-5-fluoro-6-(4-chloro-2-fluoro-3-methoxy-phenyl)pyridine-2-carboxylic acid], the “Visual Weed Control (%) Obs” value ([1]; 19 DAA, 4.38 g ae/ha) was 65%, the “Visual Weed Control (%) Obs” value ([1]; 19 DAA, 8.75 g ae/ha) was 90% and the “Visual Weed Control (%) Obs” value ([2]; 4.38 g ae/ha) was 70%. For the same molecule, the “Visual Weed Control (%) Obs” value ([3]; 4.38 g ae/ha) was 35%, the “Visual Weed Control (%) Obs” value ([3]; 8.75 g ae/ha) was 50% and the pest or weed control at 4.38 g/ha ([4]; 456 h) was 0%. It also gave a pest or weed control at 8.75 g/ha ([4]; 456 h) of 0%, a pest or weed control at 8 g/ha ([4]; 480 h) of 20% and a pest or weed control at 8.75 g/ha ([4]; 480 h) of 10%. It also gave a pest or weed control at 16 g/ha ([4]; 480 h) of 40%, a pest or weed control at 17.5 g/ha ([4]; 480 h) of 25% and a pest or weed control at 4.38 g/ha ([4]; 504 h) of 10%. For the same molecule, the pest or weed control at 8.75 g/ha ([4]; 504 h) was 10%, the pest or weed control at 17.5 g/ha ([4]; 504 h) was 25% and the pest or weed control at 8 g/ha ([4]; 528 h) was 10%. The pest or weed control at 16 g/ha ([4]; 528 h) was 10%, the pest or weed control at 32 g/ha ([4]; 528 h) was 35% and the “Visual Weed Control (%) Obs” value ([5]; 19 DAA, 4.38 g ae/ha) was 55%. For the same molecule, the “Visual Weed Control (%) Obs” value ([5]; 19 DAA, 8.75 g ae/ha) was 85%, the “Visual Weed Control (%) Obs” value ([5]; 20 DAA, 4.38 g ae/ha) was 40% and the “Visual Weed Control (%) Obs” value ([5]; 20 DAA, 8.75 g ae/ha) was 70%.

`CSC(=O)c1c(C(F)F)nc(C(F)(F)F)c(C(=O)SC)c1CC(C)C` [Dithiopyr, S,S′-dimethyl-2-(difluoromethyl)-4-(2-methylpropyl)-6-(trifluoromethyl)-3,5-pyridinedicarbothioate] was tested, and the “Visual Weed Control (%) Obs” value ([1]; 21 DAA, 35 g ai/ha) was 0%, the “Visual Weed Control (%) Obs” value ([1]; 21 DAA, 70 g ai/ha) was 0% and the “Visual Weed Control (%) Obs” value ([1]; 21 DAA, 140 g ai/ha) was 0%. For the same molecule, the “Visual Weed Control (%) Obs” value ([2]; 35 g ai/ha) was 0%, the “Visual Weed Control (%) Obs” value ([2]; 70 g ai/ha) was 0% and the “Visual Weed Control (%) Obs” value ([2]; 140 g ai/ha) was 0%. For the same molecule, the pest or weed control at 35 g/ha ([4]; 504 h, 21 DAA, 35 g ai/ha) was 10%.

`CCC(CC)Nc1c([N+](=O)[O-])cc(C)c(C)c1[N+](=O)[O-]` [Pendimethalin, N-(1-ethylpropyl)-3,4-dimethyl-2,6-dinitrobenzenamine, reference compound] was tested, and the “Visual Weed Control (%) Obs” value ([1]; 19 DAA, 140 g ai/ha) was 0%, the “Visual Weed Control (%) Obs” value ([1]; 19 DAA, 280 g ai/ha) was 0% and the “Visual Weed Control (%) Obs” value ([1]; 19 DAA, 560 g ai/ha) was 0%. For the same molecule, the “Visual Weed Control (%) Obs” value ([3]; 140 g ai/ha) was 0%, the “Visual Weed Control (%) Obs” value ([3]; 280 g ai/ha) was 0% and the pest or weed control at 140 g/ha ([4]; 456 h, 19 DAA, 140 g ai/ha) was 0%. It also gave a pest or weed control at 280 g/ha ([4]; 456 h, 19 DAA, 280 g ai/ha) of 0%, a pest or weed control at 560 g/ha ([4]; 456 h, 19 DAA, 560 g ai/ha) of 0% and a pest or weed control at 1120 g/ha ([4]; 504 h, 21 DAA, 1120 g ai/ha) of 13%. For the same molecule, the “Visual Weed Control (%) Obs” value ([5]; 19 DAA, 140 g ai/ha) was 0%, the “Visual Weed Control (%) Obs” value ([5]; 19 DAA, 280 g ai/ha) was 0% and the “Visual Weed Control (%) Obs” value ([5]; 19 DAA, 560 g ai/ha) was 10%. The “Visual Weed Control (%) Obs” value ([5]; 21 DAA, 1120 g ai/ha) was 18%.
